Experimental findings from PMC6206036, “Locking loop movement in the ubiquinone pocket of complex I disengages the proton pumps” (Nature Communications, 2018) are described below.

Like-named read-outs stand apart in the source and are kept apart here.

Data set [1] deals with T1, Complex I (proton-pumping NADH:ubiquinone oxidoreductase) (Yarrowia lipolytica, UniProt Q9B6C7+Q9B6E8+Q9UUT7+Q9UUU1).
T1 construct: gene nucm; native complete respiratory complex I in unsealed mitochondrial membranes; nugm-Htg2 (tagged NUGM) strain background; NUKM expressed from replicative plasmid pUB4 under endogenous promoter; 14 central plus accessory subunits; with NADH-ubiquinone oxidoreductase 51 kDa subunit, mitochondrial
The experiment in a line: dNADH:DBQ oxidoreductase activity at […] nm, mitochondrial membranes. As to conditions: 100 µM dNADH, DBQ 0-100 µM, pH 8.5, 25 °C; membranes preincubated with 5 mM DTT for 5 min (ND3-PSST disulfide reduced); read-out: K M ^d /. Type of data set: biochemical.

For data set [2], the target named is T1, Complex I (proton-pumping NADH:ubiquinone oxidoreductase). The experiment in a line: inhibition of dNADH:DBQ oxidoreductase activity, mitochondrial membranes. Format: biochemical. An excerpt: inhibition of dNADH:DBQ oxidoreductase activity, mitochondrial membranes on Complex I (proton-pumping NADH:ubiquinone oxidoreductase)
Substrate in data set [3]: CCCCCCCCCCC1=C(C)C(=O)C(OC)=C(OC)C1=O
Put plainly: cells, lysate or membranes. Format: biochemical, Yarrowia lipolytica. As to conditions: 100 µM dNADH, DBQ 0-100 µM, pH 8.5, 25 °C, membranes preincubated with 5 mM DTT for 5 min.

Consider `CCCCCCCCCCC1=C(C)C(=O)C(OC)=C(OC)C1=O` [DBQ, decylubiquinone], for which the Km in data set [1] was found to be 19 ± 3 µM.
As for `CCCCCCCCCCc1nc(N)c2ccccc2n1` [DQA, 2-n-decyl-quinazolin-4-yl-amine], the IC50 came out at 13 ± 3 nM in data set [2] (100 µM dNADH, 100 µM DBQ, pH 8.5, 25 °C, membranes preincubated with 5 mM DTT for 5 min (ND3-PSST disulfide reduced)) and 16 ± 3 nM in data set [2] (100 µM dNADH, 100 µM DBQ, pH 8.5, 25 °C, membranes preincubated with 5 mM DTT for 5 min, read-out: IC50^e / DQA /).
Turning to `C=C(C)[C@H]1Cc2c(ccc3c2O[C@@H]2COc4cc(OC)c(OC)cc4[C@@H]2C3=O)O1` [rotenone], the IC50 in data set [2] (read-out: IC50^e / Rotenone /) amounted to 560 ± 55 nM.

B1: Complex I (proton-pumping NADH:ubiquinone oxidoreductase) (Yarrowia lipolytica CLIB122) (protein)
chain 1: MATTALPQDPIPSGALGQKVPHVDESHQDLLFRTSHMVEDLETYDEDSPINTSDANTRIRAFTINFGPQHPAAHGVLRLILELSGEEIIRSDPHVGLLHRGTEKLIEYKTYMQALPYFDRLDYVSMMTNEQVFSLAVEKLLNVEVPLRGKYIRTMFGEITRVLNHLMSVCSHAMDVGALTPFLWGFEEREKLMEFYERVSGARLHAAYVRPGGVSQDLPAGLLDDIYMWATQFGDRLDEIEELLTDNRIWKLRTVNIGTVTAQDALNLGLSGPMLRGSGIPFDIRKNAPYDAYDKVDFDVPVGMNGDCYDRYLIRMAEFRQSLRIIEQCCNDMPAGAVKVEDFKINSPPRNLMKEDMEALIHHFLLYTKGYSVPPGETYTAIEAPKGEMGVYVVSDGSERPYKCKIRAPGFAHLGAFDHIARGHFLPDAVAIIGTMDLVFGEVDR
chain 2: SAPAGTPRVSSSSMPTDFPLPSQQKPNSAVDYTLTTLDAVANWARQGSFWPVTFGLACCAVEMMHVSAPRYDQDRLGIIFRASPRQSDIMIVAGTLTNKMAPVLRQVYDQMPEPRWVISMGSCANGGGYYHFSYSVVRGCDRIVPVDVYVPGCPPTSEALMYGVFQLQRKMRNTKITRMWYRK
chain 3: MIINIVEILIFLVCVLFSVAYLTVAERKTLAYMQRRLGPNFVGYYGLLQAFADAVKLLLKEIVLPKESNYIILVISPLITLITALIGWVVIPLGPGITLGELNLGILFSLAIGSLGVFGSLLSGWSSNSKYSLLGSIRSTAQLISYELILTSIFIIIIMFVSSLNITTIIETQRVVWYCIPLLPLLLIFFIASVAETARPPFDLTESESELVAGYFTEYSGSPFVFFFLAEYSNIILISAFNGYLLLGGYLSFNYSYLFNILFNDYSYVSFLFEGLINSSAYAIKLVFLMFSFIWVRAAFPRFTYDNLINFCWIILLPLLFGIFLIIPSTLYIFDSFPTLI
chain 4: MNTFIIFIILIPIVGFALLAVNILLAVYKPYNEKLGAFECGLTSFNQTRLAFNAAFILVAILFLPFDLEISTLLPYVMSIYLVSNYGFTIVLLFLLILIIGFVYEINTNALKINKHNKPNTDSLIYKL
notes: native complete respiratory complex I in unsealed mitochondrial membranes; nugm-Htg2 (tagged NUGM) strain background; NUKM expressed from replicative plasmid pUB4 under endogenous promoter; 14 central plus accessory subunits; with NADH-ubiquinone oxidoreductase 51 kDa subunit, mitochondrial
With B1, in data set [3], the Km worked out at 17 ± 3 µM and the Vmax was found to be 0.16 µmol/min/mg.
